Data from patent publication US20200016159A1, “N3-CYCLICALLY SUBSTITUTED THIENOURACILS AND USE THEREOF” (Bayer Aktiengesellschaft, priority 2016, published 2020).

Molecular target: T1, human adenosine A2b receptor (Homo sapiens, UniProt P29275)
T1 sequence (P29275 1-332): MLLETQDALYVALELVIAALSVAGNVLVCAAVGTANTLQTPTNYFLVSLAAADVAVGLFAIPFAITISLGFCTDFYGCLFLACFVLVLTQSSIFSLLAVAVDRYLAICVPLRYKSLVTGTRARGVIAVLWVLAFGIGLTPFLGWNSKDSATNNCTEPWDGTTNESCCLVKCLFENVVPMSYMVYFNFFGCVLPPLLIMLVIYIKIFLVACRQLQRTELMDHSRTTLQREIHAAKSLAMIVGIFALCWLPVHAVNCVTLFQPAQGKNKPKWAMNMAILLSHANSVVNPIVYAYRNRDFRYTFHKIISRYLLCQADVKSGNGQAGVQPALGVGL
Assay: Cellular in vitro reporter gene test for A2b receptor activity (antagonism of NECA)
Assay type: cell-based
Design: expressed in transfected cells; host or cells: CHO-K1 (Chinese hamster ovary) with CRE-luciferase reporter
Conditions: recombinant CHO-K1 cells, CRE-luciferase reporter, co-incubation with EC50 concentration of NECA, 3 hours
How it was run: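 Antagonism measured as block of NECA-induced, cAMP/CRE-dependent luciferase expression in recombinant A2b CHO-K1 cells. NECA used at the EC50 set in a pre-experiment on each test day; luminescence detected after 3 h. Reported as IC50, partly averaged and rounded to two significant figures.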

| SMILES | IC50 [nM] |
| --- | --- |
| Cc1c(CN2CCNC2=O)sc2c1c(=O)n(C1CC(C)(C)C1)c(=O)n2CCC(F)(F)F [Example 164, 3-(3,3-Dimethylcyclobutyl)-5-methyl-6-[(2-oxoimidazolidin-1-yl)methyl]-1-(3,3,3-trifluoropropyl)thieno[2,3-d]pyrimidine-2,4(1H,3H)-dione] | 4.6 |
| CCC1(n2c(=O)c3c(C)c(Cn4nc[nH]c4=O)sc3n(CCC(F)(F)F)c2=O)CC1 [Example 107, 3-(1-Ethylcyclopropyl)-5-methyl-6-[(5-oxo-4,5-dihydro-1H-1,2,4-triazol-1-yl)methyl]-1-(3,3,3-trifluoropropyl)thieno[2,3-d]pyrimidine-2,4(1H,3H)-dione] | 290 |
| Cc1c(Cn2nc[nH]c2=O)sc2c1c(=O)n(C1CC1)c(=O)n2CCCCF [Example 198, 3-Cyclopropyl-1-(4-fluorobutyl)-5-methyl-6-[(5-oxo-4,5-dihydro-H-1,2,4-triazol-1-yl)methyl]thieno[2,3-d]pyrimidine-2,4(1H,3H)-dione] | 190 |
| COCCn1c(=O)n(C2CC2(C)C)c(=O)c2c(C)c(CN3CCNC3=O)sc21 (racemic) [Example 103, 3-(2,2-Dimethylcyclopropyl)-1-(2-methoxyethyl)-5-methyl-6-[(2-oxoimidazolidin-1-yl)methyl]thieno[2,3-d]pyrimidine-2,4(1H,3H)-dione] | 21 |
| Cc1c(CN2CCNC2=O)sc2c1c(=O)n(C1(C)CC1)c(=O)n2CC1CC1(F)F (single isomer, unassigned) [Example 64, 1-[(2,2-Difluorocyclopropyl)methyl]-5-methyl-3-(1-methylcyclopropyl)-6-[(2-oxoimidazolidin-1-yl)methyl]thieno[2,3-d]pyrimidine-2,4(1H,3H)-dione] | 13 |
| Cc1c(CN2CCNC2=O)sc2c1c(=O)n(C1CC1)c(=O)n2CC1CC(F)(F)C1 [Example 204, 3-Cyclopropyl-1-[(3,3-difluorocyclobutyl)methyl]-5-methyl-6-[(2-oxoimidazolidin-1-yl)methyl]thieno[2,3-d]pyrimidine-2,4(1H,3H)-dione] | 1.8 |
| Cc1c(CN2CCNC2=O)sc2c1c(=O)n(C1(C)CC1)c(=O)n2C[C@H]1CCCO1 [Example 81, 5-Methyl-3-(1-methylcyclopropyl)-6-[(2-oxoimidazolidin-1-yl)methyl]-1-[(2R)-tetrahydrofuran-2-ylmethyl]thieno[2,3-d]pyrimidine-2,4(1H,3H)-dione] | 39 |
| CCn1c(=O)n(C2CC2C)c(=O)c2c(C)c(CN3CCNC3=O)sc21 (single isomer, unassigned) [Example 225, 1-Ethyl-5-methyl-3-(2-methylcyclopropyl)-6-[(2-oxoimidazolidin-1-yl)methyl]thieno[2,3-d]pyrimidine-2,4(1H,3H)-dione] | 26 |
| COCCn1c(=O)n(C2(C)CC2)c(=O)c2c(C)c(CN3CCNC3=NC#N)sc21 [Example 71, [1-{[1-(2-Methoxyethyl)-5-methyl-3-(1-methylcyclopropyl)-2,4-dioxo-1,2,3,4-tetrahydrothieno[2,3-d]pyrimidin-6-yl]methyl}imidazolidine-2-ylidene]cyanamide] | 12 |
| Cc1c(CN2CCNC2=NC#N)sc2c1c(=O)n(C1CC1)c(=O)n2CCCF [Example 7, [1-{[3-Cyclopropyl-1-(3-fluoropropyl)-5-methyl-2,4-dioxo-1,2,3,4-tetrahydrothieno[2,3-d]pyrimidin-6-yl]methyl}imidazolidin-2-ylidene]cyanamide] | 18 |
| COCCn1c(=O)n(C2CCC2)c(=O)c2c(C)c(CN3CCNC3=NC#N)sc21 [Example 116, [1-{[3-Cyclobutyl-1-(2-methoxyethyl)-5-methyl-2,4-dioxo-1,2,3,4-tetrahydrothieno[2,3-d]pyrimidin-6-yl]methyl}imidazolidin-2-ylidene]cyanamide] | 4 |
| CCC1CC1n1c(=O)c2c(C)c(Cn3nc[nH]c3=O)sc2n(CCOC)c1=O (single isomer, unassigned) [Example 304, 3-(2-Ethylcyclopropyl)-1-(2-methoxyethyl)-5-methyl-6-[(5-oxo-4,5-dihydro-H-1,2,4-triazol-1-yl)methyl]thieno[2,3-d]pyrimidine-2,4(1H,3H)-dione] | 350 |
| CCOCCn1c(=O)n(C2CC2)c(=O)c2c(C)c(CN3CCNC3=O)sc21 [Example 31, 3-Cyclopropyl-1-(2-ethoxyethyl)-5-methyl-6-[(2-oxoimidazolidin-1-yl)methyl]thieno[2,3-d]pyrimidine-2,4(1H,3H)-dione] | 67 |
| Cc1c(Cn2cc[nH]c2=O)sc2c1c(=O)n(C1(C)CC1)c(=O)n2CC1CC(F)(F)C1 [Example 216] | 3.2 |
| COCCn1c(=O)n([C@H]2C[C@H](OC)C2)c(=O)c2c(C)c(CN3CCNC(=O)C3=O)sc21 [Example 152, 6-[(2,3-Dioxopiperazin-1-yl)methyl]-3-(trans-3-methoxycyclobutyl)-1-(2-methoxyethyl)-5-methylthieno[2,3-d]pyrimidine-2,4(1H,3H)-dione] | 340 |
| COCCn1c(=O)n(C2CC2C(F)(F)F)c(=O)c2c(C)c(Cn3nc[nH]c3=O)sc21 (single isomer, unassigned) [Example 298, 1-(2-Methoxyethyl)-5-methyl-6-[(5-oxo-4,5-dihydro-1H-1,2,4-triazol-1-yl)methyl]-3-[2-(trifluoromethyl)cyclopropyl]thieno[2,3-d]pyrimidine-2,4(1H,3H)-dione] | 1800 |
| COC(=O)N=C1NCCN1Cc1sc2c(c1C)c(=O)n(C1(C)CCC1)c(=O)n2CCC(F)(F)F [Example 136, Methyl [1-{[5-methyl-3-(1-methylcyclobutyl)-2,4-dioxo-1-(3,3,3-trifluoropropyl)-1,2,3,4-tetrahydrothieno[2,3-d]pyrimidin-6-yl]methyl}imidazolidin-2-ylidene]carbamate] | 19 |
| Cc1c(CN2CCNC2=O)sc2c1c(=O)n(C1CC1C)c(=O)n2CCC(F)(F)C(F)F (single isomer, unassigned) [Example 247, 5-Methyl-3-(2-methylcyclopropyl)-6-[(2-oxoimidazolidin-1-yl)methyl]-1-(3,3,4,4-tetrafluorobutyl)thieno[2,3-d]pyrimidine-2,4(1H,3H)-dione] | 3.5 |
| Cc1c(CN2CCNC2=O)sc2c1c(=O)n(C1CC1C)c(=O)n2CC1CC(F)(F)C1 (racemic) [Example 252, 1-[(3,3-Difluorocyclobutyl)methyl]-5-methyl-3-(2-methylcyclopropyl)-6-[(2-oxoimidazolidin-1-yl)methyl]thieno[2,3-d]pyrimidine-2,4(1H,3H)-dione] | 1.4 |
| Cc1c(CN2CCNC2=O)sc2c1c(=O)n(C1CC1C)c(=O)n2CCCC(F)(F)F (single isomer, unassigned) [Example 244, 5-Methyl-3-(2-methylcyclopropyl)-6-[(2-oxoimidazolidin-1-yl)methyl]-1-(4,4,4-trifluorobutyl)thieno[2,3-d]pyrimidine-2,4(1H,3H)-dione] | 3.3 |
| COCCn1c(=O)n(C2(C(F)(F)F)CC2)c(=O)c2c(C)c(CN3CCNC3=NC(=O)OC)sc21 [Example 87, Methyl [1-({1-(2-methoxyethyl)-5-methyl-2,4-dioxo-3-[1-(trifluoromethyl)cyclopropyl]-1,2,3,4-tetrahydrothieno[2,3-d]pyrimidin-6-yl}methyl)imidazolidin-2-ylidene]carbamate] | 140 |
